These results are taken from ChEMBL document CHEMBL2311357, “Aminoalkyl derivatives of guanidine diaromatic minor groove binders with antiprotozoal activity” (J Med Chem, 2013).

The test system of one series is Salmonidae. Kind of series: Binding affinity to salmon sperm DNA in 10 mM phosphate buffer assessed as change in melting temperature at 15 uM by thermal denaturation assay.
Series [1] concerns Trypanosoma brucei rhodesiense. Kind of series: Antitrypanosomal activity against Trypanosoma brucei rhodesiense STIB900 after 70 hrs by resazurin reduction assay. The series is classed as functional, organism-based. Particulars: STIB900, 70 h.
A further series deals with L6. The series is described as follows: Cytotoxicity against rat L6 cells after 70 hrs by resazurin reduction assay. In kind it is cell-based. Particulars: L6, 70 h.
The nature of series [2]: Selectivity index, ratio of IC50 for rat L6 cells to IC50 for Plasmodium falciparum NF54. The series is classed as toxicity, cell-based. Particulars: L6 cells versus Plasmodium falciparum NF54, read-out: Ratio IC50.
The subject of the next series is Plasmodium falciparum. Kind of series: Antimalarial activity against erythrocytic stage of Plasmodium falciparum NF54 assessed as incorporation of [3H]hypoxanthine after 48 hrs by scintillation counting analysis. The series is classed as functional, organism-based.
A short description of series [3]: Selectivity index, ratio of IC50 for rat L6 cells to IC50 for Trypanosoma brucei rhodesiense STIB900. The note with it: L6 cells versus Trypanosoma brucei rhodesiense STIB900, read-out: Ratio IC50. The series is classed as toxicity, cell-based.
Series [4] deals with DNA. Kind of series: Binding affinity to calf thymus DNA in MES buffer assessed as change in melting temperature. The series is classed as nucleic-acid assay. Particulars: Bos taurus.
The test system of a further series is unidentified. The series is described as follows: Binding affinity to poly(dA-dT) DNA (unknown origin) in PIPES buffer assessed as change in melting temperature.
Series [5] in a line: Binding affinity to poly(dA-dT) DNA (unknown origin) in Tris-Hcl buffer assessed as change in melting temperature.
The test system of series [6] is DNA. Kind of series: Binding affinity to calf thymus DNA in Tris-Hcl buffer assessed as change in melting temperature. The series is classed as nucleic-acid assay. The note with it: Bos taurus.

pIC50: −log10 of the molar value.

`N=C(N)Nc1ccc(Nc2ccc(N)cc2)cc1`: the ΔTm in the series on Salmonidae came to 2.1 °C.

Take `N=C(N)Nc1ccc(Cc2ccc(NC(=O)CCCCCCCN)cc2)cc1`: in the series on Salmonidae, the ΔTm was 0.1 °C.

Take `N=C(N)Nc1ccc(Nc2ccc(NC(=O)CCCCCCCN)cc2)cc1`: the ΔTm in the series on Salmonidae was determined as 2 °C.

In [1], `Nc1nc(N)nc(Nc2ccc([As]3SCC(CO)S3)cc2)n1` (configuration not stated) [MELARSOPROL] gave a pIC50 of 8.26.

As for `N=C(N)Nc1ccc(C(=O)c2ccc(NC(=O)CCCCCCCCCCN)cc2)cc1`, the ΔTm in the series with Salmonidae was 2 °C.

Turning to `N=C(N)Nc1ccc(Cc2ccc(NC(=O)CCCCN)cc2)cc1`, the ΔTm with Salmonidae is 4 °C. Moreover, the pIC50 was 3.98 with L6 and 6.23 with Plasmodium falciparum. Also, the selectivity ratio in [2] was found to be 179.

For `N=C(N)Nc1ccc(Cc2ccc(NC(=O)CCCN)cc2)cc1`, the ΔTm in the series with Salmonidae was determined as 1 °C. The pIC50 is 3.68 in the series on L6 and 5.58 in the series on Plasmodium falciparum. Further, in series [2], the selectivity ratio was 79.

Take `N=C(N)Nc1ccc(Nc2ccc(NC(=N)N)cc2)cc1`: in the series on Salmonidae, the ΔTm amounted to 8 °C.

Take `N=C(N)Nc1ccc(Oc2ccc(NC(=O)CCCCCCCN)cc2)cc1`: the shift in melting temperature (ΔTm) with Salmonidae came out at 2.1 °C. In addition, the negative-log IC50 (pIC50) is 4.50 in [1], 3.87 in the series with L6 and 6.83 in the series on Plasmodium falciparum. Also, the selectivity ratio in [2] was determined as 913; in series [3], 4.

In the case of `N=C(N)Nc1ccc(C(=O)c2ccc(NC(=N)N)cc2)cc1`, in the series on Salmonidae, the ΔTm turned out to be 4.2 °C.

In the case of `N=C(N)Nc1ccc(Cc2ccc(N)cc2)cc1`, in the series on Salmonidae, the ΔTm stood at 3 °C.

For the compound `N=C(N)Nc1ccc(CCc2ccc(NC(=O)CCCCN)cc2)cc1`, in the series on Salmonidae, the ΔTm came to 5.1 °C. Besides, the pIC50 was 4.69 in [1], 3.96 in the series with L6 and 5.97 in the series on Plasmodium falciparum. Moreover, the selectivity ratio was 103 in series [2] and 5 in series [3].

As to `N=C(N)Nc1ccc(Nc2ccc(NC(=O)CCCCCCCCCCCN)cc2)cc1`, the ΔTm in the series with Salmonidae amounted to 5 °C. In addition, the figures for the pIC50 (in series [1]; with L6; in the series on Plasmodium falciparum) were 5.39, 4.92 and 5.57, respectively. The selectivity ratio is 4 in series [2] and 3 in [3].

Take `N=C(N)Nc1ccc(Nc2ccc(NC(=O)CCCN)cc2)cc1`: in the series on Salmonidae, the ΔTm was 1 °C. Moreover, the pIC50 in the series on L6 was 3.90; in the series on Plasmodium falciparum, 5.92. In [2], the selectivity ratio amounted to 106.

With `N=C(N)Nc1ccc(Oc2ccc(NC(=O)CCCCN)cc2)cc1`, the ΔTm in the series with Salmonidae is 6 °C. For the same compound, the pIC50 was 4.88 in series [1], 4.47 in the series on L6 and 6.97 in the series on Plasmodium falciparum. In addition, the selectivity ratio in series [2] was determined as 316; in series [3], 3.

Regarding `N=C(N)Nc1ccc(Nc2ccc(NC(=O)CCCCN)cc2)cc1`, in the series on Salmonidae, the ΔTm came to 6.1 °C. In addition, the pIC50 in series [1] is 4.24; in the series on L6, 3.65; with Plasmodium falciparum, 5.84. For the same compound, the selectivity ratio is 153 in series [2] and 4 in series [3].

For the compound `N=C(N)c1ccc(OCCCCCOc2ccc(C(=N)N)cc2)cc1` [PENTAMIDINE], the ΔTm in the series with DNA [4] is 10.6 °C; with unidentified it was 12.8 °C; in series [5], 11.1 °C; in the series on DNA [6], 20.6 °C. The pIC50 in [1] was 8.70; in the series with L6 it was 5.82; in the series on Plasmodium falciparum, 7.57. Also, the selectivity ratio came to 56 in series [2] and 755 in series [3].

In the case of `N=C(N)Nc1ccc(Cc2ccc(NC(=N)N)cc2)cc1`, the ΔTm in the series on Salmonidae was determined as 8.1 °C.

As to `N=C(N)Nc1ccc(Cc2ccc(NC(=O)CCCCCCCCCCCN)cc2)cc1`, the shift in melting temperature (ΔTm) in the series on Salmonidae worked out at 0.1 °C. In addition, the results for the pIC50 with L6 and with Plasmodium falciparum were 4.62 and 5.63, respectively. For the same compound, the selectivity ratio in series [2] was found to be 10.

Turning to `N=C(N)Nc1ccc(Oc2ccc(NC(=O)CCCCCCCCCCN)cc2)cc1`, the ΔTm in the series with Salmonidae was 2 °C. The figures for the pIC50 in the series with L6 and with Plasmodium falciparum were 4.21 and 5.85, respectively. Besides, the selectivity ratio in series [2] was 44.

For the compound `N=C(N)Nc1ccc(C(=O)c2ccc(N)cc2)cc1`, the ΔTm in the series with Salmonidae turned out to be 0 °C.

As for `N=C(N)Nc1ccc(C(=O)c2ccc(NC(=O)CCCN)cc2)cc1`, the ΔTm in the series with Salmonidae is 5.1 °C.

Turning to `N=C(N)Nc1ccc(Oc2ccc(N)cc2)cc1`, the ΔTm with Salmonidae was 2 °C.

`N=C(N)Nc1ccc(Cc2ccc(NC(=O)CCCCCCCCCCN)cc2)cc1`: the ΔTm in the series on Salmonidae turned out to be 0 °C. In addition, the pIC50 with L6 is 4.52; in the series with Plasmodium falciparum it was 5.69. In addition, the selectivity ratio in series [2] came out at 15.

Consider `N=C(N)Nc1ccc(CCc2ccc(NC(=O)CCCCCCCCCCN)cc2)cc1`, for which, in the series on Salmonidae, the ΔTm stood at 1.1 °C. Moreover, the pIC50 with L6 was 4.15; in the series on Plasmodium falciparum, 5.24. For the same compound, in [2], the selectivity ratio amounted to 12.

In the case of `N=C(N)Nc1ccc(C(=O)c2ccc(NC(=O)CCCCCCCCCCCN)cc2)cc1`, in the series with Salmonidae, the ΔTm came out at 2.1 °C. The pIC50 is 4.97 in the series on L6 and 5.70 in the series on Plasmodium falciparum. The selectivity ratio in series [2] is 5.

Regarding `N=C(N)Nc1ccc(CCc2ccc(N)cc2)cc1`, the ΔTm in the series with Salmonidae turned out to be 0.1 °C.

For the compound `N=C(N)Nc1ccc(Oc2ccc(NC(=O)CCCCCCCCCCCN)cc2)cc1`, the ΔTm with Salmonidae turned out to be 2 °C. The pIC50 was 4.65 in the series on L6 and 5.77 in the series on Plasmodium falciparum. Further, the selectivity ratio in series [2] was 13.

Regarding `N=C(N)Nc1ccc(CCc2ccc(NC(=O)CCCCCCCN)cc2)cc1`, in the series on Salmonidae, the ΔTm came out at 2 °C.

On to `N=C(N)Nc1ccc(C(=O)c2ccc(NC(=O)CCCCN)cc2)cc1`, for which the ΔTm in the series on Salmonidae was 5.2 °C. Besides, the pIC50 in series [1] is 3.92; in the series with L6, 3.85; in the series on Plasmodium falciparum it was 5.59. Also, the figures for the selectivity ratio in series [2] and in series [3] were 55 and 1, respectively.

On to `N=C(N)Nc1ccc(CCc2ccc(NC(=O)CCCN)cc2)cc1`, for which the ΔTm with Salmonidae came to 5 °C. Besides, the values for the pIC50 (in series [1]; in the series on L6; in the series on Plasmodium falciparum) were 4.88, 3.88 and 5.94, respectively. Besides, the figures for the selectivity ratio in [2] and in series [3] were 116 and 10, respectively.

As for `N=C(N)Nc1ccc(CCc2ccc(NC(=O)CCCCCCCCCCCN)cc2)cc1`, in the series on Salmonidae, the ΔTm stood at 1.1 °C.

As for `N=C(N)Nc1ccc(Oc2ccc(NC(=O)CCCN)cc2)cc1`, the ΔTm in the series on Salmonidae is 1.2 °C. The pIC50 was 3.76 in the series on L6 and 6.06 in the series with Plasmodium falciparum. Besides, the selectivity ratio in [2] is 197.

For the compound `N=C(N)Nc1ccc(Nc2ccc(NC(=O)CCCCCCCCCCN)cc2)cc1`, in the series with Salmonidae, the ΔTm was determined as 3.1 °C. In addition, the pIC50 was 4.07 in [1], 3.80 in the series on L6 and 5.42 with Plasmodium falciparum. Also, the selectivity ratio stood at 41 in [2] and 2 in series [3].
